Measurements taken from ChEMBL document CHEMBL4665869, “New thiazolopyrimidine as anticancer agents: Synthesis, biological evaluation, DNA binding, molecular modeling and ADMET study” (Bioorg Med Chem Lett, 2020).
≈ marks a conversion by molar mass, not a printed value. Calls of active or inactive are those of the source. The calls are words filed in the database; no cut-off is given here.

Legend:
SNB-75 = assay: Growth inhibition of human SNB-75 cells at 10 uM relative to control; type: functional; conditions: read-out: GI
HCT-116 = assay: Growth inhibition of human HCT-116 cells at 10 uM relative to control; type: functional
[1] = Growth inhibition of human renal cancer cells; type: functional; conditions: Renal cancer cell line
SF-295 = assay: Growth inhibition of human SF-295 cells at 10 uM relative to control; type: functional
SK-MEL-5 = assay: Growth inhibition of human SK-MEL-5 cells at 10 uM relative to control; type: functional
SN12C = assay: Growth inhibition of human SN12C cells at 10 uM relative to control; type: functional
[2] = test system: Panel NCI-60 (60 carcinoma cell lines); assay: Growth inhibition of human NCI60 cells; type: functional
MDA-MB-435 = assay: Growth inhibition of human MDA-MB-435 cells at 10 uM relative to control; type: functional
TK-10 = assay: Growth inhibition of human TK-10 cells at 10 uM relative to control; type: functional
RXF 393 = assay: Growth inhibition of human RXF 393 cells at 10 uM relative to control; type: functional
PC-3 = assay: Growth inhibition of human PC-3 cells at 10 uM relative to control; type: functional
NCI-H522 = assay: Growth inhibition of human NCI-H522 cells at 10 uM relative to control; type: functional
NCI-H322M = assay: Growth inhibition of human NCI-H322M cells at 10 uM relative to control; type: functional; conditions: read-out: GI
MCF7 = assay: Growth inhibition of human MCF7 cells at 10 uM relative to control; type: functional
NCI-H460 = assay: Growth inhibition of human NCI-H460 cells at 10 uM relative to control; type: functional
[3] = Growth inhibition of human breast cancer cells; type: functional; conditions: Breast cancer cell line
OVCAR-8 = assay: Growth inhibition of human OVCAR-8 cells at 10 uM relative to control; type: functional; conditions: read-out: GI
[4] = Growth inhibition of human CNS cancer cells; type: functional; conditions: CNS cell
Hs-578T = assay: Growth inhibition of human Hs-578T cells at 10 uM relative to control; type: functional; conditions: read-out: GI
RPMI-8226 = assay: Growth inhibition of human RPMI-8226 cells at 10 uM relative to control; type: functional
786-0 = assay: Growth inhibition of human 786-0 cells at 10 uM relative to control; type: functional
HL-60(TB) = assay: Growth inhibition of human HL-60(TB) cells at 10 uM relative to control; type: functional
SW-620 = assay: Growth inhibition of human SW-620 cells at 10 uM relative to control; type: functional
K562 = assay: Growth inhibition of human K562 cells at 10 uM relative to control; type: functional; conditions: read-out: GI
NCI-H226 = assay: Growth inhibition of human NCI-H226 cells at 10 uM relative to control; type: functional; conditions: read-out: GI
DNA = assay: Displacement of methyl green from DNA (unknown origin) assessed as DNA intercalation after 24 hrs by colorimetric assay; type: nucleic-acid assay
[5] = Growth inhibition of human Non-small cell lung cancer cells; type: functional; conditions: Non-small cell lung cancer cell line
Leukemia cell = assay: Growth inhibition of human leukemia cancer cells; type: functional
U-251 = assay: Growth inhibition of human U-251 cells at 10 uM relative to control; type: functional
[6] = Growth inhibition of human colon cancer cells; type: functional; conditions: Colon cancer cell line
UACC-62 = assay: Growth inhibition of human UACC-62 cells at 10 uM relative to control; type: functional
SF-268 = assay: Growth inhibition of human SF-268 cells at 10 uM relative to control; type: functional
IGROV-1 = assay: Growth inhibition of human IGROV-1 cells at 10 uM relative to control; type: functional
BT-549 = assay: Growth inhibition of human BT-549 cells at 10 uM relative to control; type: functional
HCC 2998 = assay: Growth inhibition of human HCC 2998 cells at 10 uM relative to control; type: functional
M14 = assay: Growth inhibition of human M14 cells at 10 uM relative to control; type: functional
Melanoma cell line = assay: Growth inhibition of human melanoma cancer cells; type: functional
Malme-3M = assay: Growth inhibition of human Malme-3M cells at 10 uM relative to control; type: functional
SK-MEL-28 = assay: Growth inhibition of human SK-MEL-28 cells at 10 uM relative to control; type: functional
NCI-H23 = assay: Growth inhibition of human NCI-H23 cells at 10 uM relative to control; type: functional
HOP-92 = assay: Growth inhibition of human HOP-92 cells at 10 uM relative to control; type: functional
HCT-15 = assay: Growth inhibition of human HCT-15 cells at 10 uM relative to control; type: functional
[7] = Growth inhibition of human prostate cancer cells; type: functional; conditions: Prostate tumor cell line
SNB-19 = assay: Growth inhibition of human SNB-19 cells at 10 uM relative to control; type: functional; conditions: read-out: GI
MDA-MB-231 = assay: Growth inhibition of human MDA-MB-231 cells at 10 uM relative to control; type: functional
MDA-MB-468 = assay: Growth inhibition of human MDA-MB-468 cells at 10 uM relative to control; type: functional
OVCAR-4 = assay: Growth inhibition of human OVCAR-4 cells at 10 uM relative to control; type: functional; conditions: read-out: GI
DU-145 = assay: Growth inhibition of human DU-145 cells at 10 uM relative to control; type: functional
LOX IMVI = assay: Growth inhibition of human LOX IMVI cells at 10 uM relative to control; type: functional
HOP-62 = assay: Growth inhibition of human HOP-62 cells at 10 uM relative to control; type: functional
HT-29 = assay: Growth inhibition of human HT-29 cells at 10 uM relative to control; type: functional
ACHN = assay: Growth inhibition of human ACHN cells at 10 uM relative to control; type: functional
MOLT-4 = assay: Growth inhibition of human MOLT-4 cells at 10 uM relative to control; type: functional
KM12 = assay: Growth inhibition of human KM12 cells at 10 uM relative to control; type: functional
[8] = read-out: LC50 (the source's name)

## COc1cc(/C=C/C2=CC(c3cc(OC)c(OC)c(OC)c3)N3C=C(C)SC3=N2)cc(OC)c1OC (configuration not stated)
SNB-75
  inhibition of growth at 10 µM: 75.6%
HCT-116
  growth inhibition (GI): Active
[1]
  GI50: 1.49 µM
  TGI: 4.38 µM
[1]; [8]
  CC50: 54.7 µM
SF-295
  growth inhibition (GI): Active
SK-MEL-5
  growth inhibition (GI): Active
SN12C
  growth inhibition (GI): Active
[2]
  GI50: 1.07 µM
  LC50: 34.7 µM
  TGI: 6.61 µM
MDA-MB-435
  growth inhibition (GI): Active
TK-10
  growth inhibition (GI): Active
RXF 393
  growth inhibition (GI): Active
PC-3
  growth inhibition (GI): Active
NCI-H522
  growth inhibition (GI): Active
NCI-H322M
  inhibition of growth at 10 µM: 86.4%
MCF7
  growth inhibition (GI): Active
NCI-H460
  growth inhibition (GI): Active
[3]
  GI50: 1.39 µM
  TGI: 17.9 µM
[3]; [8]
  CC50: 68.7 µM
OVCAR-8
  inhibition of growth at 10 µM: 91.9%
[4]
  GI50: 1.85 µM
  TGI: 10.2 µM
[4]; [8]
  CC50: 54.2 µM
Hs-578T
  inhibition of growth at 10 µM: 98%
RPMI-8226
  growth inhibition (GI): Active
786-0
  growth inhibition (GI): Active
HL-60(TB)
  growth inhibition (GI): Active
SW-620
  growth inhibition (GI): Active
K562
  inhibition of growth at 10 µM: 97.8%
NCI-H226
  inhibition of growth at 10 µM: 97.3%
DNA
  IC50: 36.13 µg/mL (≈ 70.8 µM)
[5]
  GI50: 1.94 µM
  TGI: 4.81 µM
[5]; [8]
  CC50: 62.9 µM
Leukemia cell
  GI50: 0.43 µM
  TGI: 61.9 µM
Leukemia cell; [8]
  CC50: > 100 µM
U-251
  growth inhibition (GI): Active
[6]
  GI50: 0.92 µM
  TGI: 3.62 µM
[6]; [8]
  CC50: 36 µM
UACC-62
  growth inhibition (GI): Active
SF-268
  growth inhibition (GI): Active
IGROV-1
  growth inhibition (GI): Active
BT-549
  growth inhibition (GI): Active
HCC 2998
  growth inhibition (GI): Active
M14
  growth inhibition (GI): Active
Melanoma cell line
  GI50: 0.99 µM
  TGI: 3.37 µM
Melanoma cell line; [8]
  CC50: 18.2 µM
Malme-3M
  growth inhibition (GI): Active
SK-MEL-28
  growth inhibition (GI): Active
NCI-H23
  growth inhibition (GI): Active
HOP-92
  growth inhibition (GI): Active
HCT-15
  growth inhibition (GI): Active
[7]
  GI50: 1.69 µM
  TGI: 52.9 µM
[7]; [8]
  CC50: > 100 µM
SNB-19
  inhibition of growth at 10 µM: 66.5%
MDA-MB-231
  growth inhibition (GI): Active
MDA-MB-468
  growth inhibition (GI): Active
OVCAR-4
  inhibition of growth at 10 µM: 88.4%
DU-145
  growth inhibition (GI): Active
LOX IMVI
  growth inhibition (GI): Active
HOP-62
  growth inhibition (GI): Active
HT-29
  growth inhibition (GI): Active
ACHN
  growth inhibition (GI): Active
MOLT-4
  growth inhibition (GI): Active
KM12
  growth inhibition (GI): Active
